These results are taken from ChEMBL document CHEMBL1140613, “Antituberculosis drugs: ten years of research” (2007).

In the assay the test system is Mycobacterium tuberculosis. The assay is described as follows: Antituberculosis activity against Mycobacterium tuberculosis. Format: functional.

Converted amounts (≈) assume the structure as drawn.

As for `COc1nc2ccc(Br)cc2cc1[C@@H](c1ccccc1)[C@@](O)(CCN(C)C)c1cccc2ccccc12` [BEDAQUILINE], the MIC99 was determined as 0.06 µg/mL (≈ 0.108 µM).

In general, MIC99 refers to the lowest concentration that inhibits either 99% of growth or 99% of the strains tested, depending on the study. A lower MIC99 goes with higher susceptibility.
